Reference: publication PMC11714206, “Massively Parallel Screening of Toll/Interleukin‐1 Receptor (TIR)‐Derived Peptides Reveals Multiple Toll‐Like Receptors (TLRs)‐Targeting Immunomodulatory Peptides” (Advanced Science, 2024)
Blank lines part the entries; values can stand above or below the sequence they belong to.

Biological target: T1, MAL^TIR (Homo sapiens, UniProt P58753)
T1 construct: MAL (residues 79–221); 6xHis; made in house; host or cells: E. coli BL21 (DE3)
Assay: T‐Surf phage library (P8 and P3) selection against MAL^TIR, four rounds, NGS read counts
Format: binding
Conditions: for P8_MAL Rank (after) / P8_MAL Rank (before): P8 library; for P3_MAL Rank (after) / P3_MAL Rank (before): P3 library; for Population: 4th round of selection against MAL TIR, share of NGS reads
Procedure, shortened: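 Four panning rounds on TIR domain adsorbed at 5 µg mL^−1; binding 1 h at 20–22 °C, elution with 100 mM HCl. Output: NGS read counts of round‐4 pools versus naïve library.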

[1] = P3_MAL: rank by count after grouping
[2] = P3_MAL: rank by count before grouping
[3] = selection against MAL, rank by count after grouping
[4] = selection against MAL, rank by count before grouping
[5] = selection against MAL, rank after grouping
[6] = selection against MAL, rank before grouping
[7] = P8_MAL: rank by count after grouping
[8] = P8_MAL: rank by count before grouping
[9] = selection against MAL TIR, rank by count after grouping
[10] = selection against MAL TIR, rank by count before grouping
[11] = P3_MAL pool: P3 T-Surf phage library
[12] = 4R selection against MAL, rank after grouping
[13] = 4R selection against MAL, rank before grouping
[14] = P8_MAL pool: P8 T-Surf phage library

T1 sequence (P58753 79-221): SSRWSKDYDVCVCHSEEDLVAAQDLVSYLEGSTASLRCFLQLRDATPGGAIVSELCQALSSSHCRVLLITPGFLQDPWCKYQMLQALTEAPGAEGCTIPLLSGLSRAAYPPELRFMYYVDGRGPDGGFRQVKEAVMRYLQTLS

Sequence: NQWRNALTAAANLRGR
Rank (after) [1]: 145
Rank (before) [2]: 3369

Sequence: WFYERLVSLIRRDIKV
P8_MAL Rank (after) [3]: 694
P8_MAL Rank (before) [4]: 1219

Sequence: GFLYQAFAREGLQIFM
Rank (after) [1]: 164
Rank (before) [2]: 1739

Sequence: NLLYDLLRWLGIRAFL
Rank (after) [7]: 403
Rank (before) [8]: 2677

Sequence: SSFREGLLRLLELRKK
P3_MAL Rank (after) [9]: 265
P3_MAL Rank (before) [10]: 3138

Sequence: SFFWNKLRYHLQAKDH
P3_MAL Rank (after) [5]: 572
P3_MAL Rank (before) [6]: 3010

Sequence: SSFREGIWRLLELRKK
Rank (after) [1]: 394
Rank (before) [2]: 3183

Sequence: RNFVADLFPALPNKGI
P8_MAL Rank (after) [5]: 566
P8_MAL Rank (before) [6]: 2232

Sequence: FAFTGHLHRYLVQRGV
Population [11]: 0.00338%

Sequence: WFYARLVRLILRDPKV
Rank (after) [7]: 419
Rank (before) [8]: 1135

Sequence: AFFWAQLKSTLGETSF
P8_MAL Rank (after) [5]: 567
P8_MAL Rank (before) [6]: 1640

Sequence: PNLRTKVLSYLMRTKT
Population [11]: 0.00376%

Sequence: CVYRPSASLSGAAWR
P3_MAL Rank (after) [5]: 568
P3_MAL Rank (before) [6]: 1321

Sequence: YAFTGHLHRYLLQRGG
P3_MAL Rank (after) [5]: 543
P3_MAL Rank (before) [6]: 1418

Sequence: SSFREGLWRLRELGKK
P3_MAL Rank (after) [12]: 622
P3_MAL Rank (before) [13]: 3161

Sequence: RNFVADLFQALADKGI
P8_MAL Rank (after) [12]: 666
P8_MAL Rank (before) [13]: 2308

Sequence: WFNIRLVTVLDHVNDV
P8_MAL Rank (after) [5]: 573
P8_MAL Rank (before) [6]: 1391

Sequence: AFFWEQLKSVLGNPTM
Population [14]: 0.00371%

Sequence: DWFLSHLRHHLQAKDH
Rank (after) [1]: 183
Rank (before) [2]: 779

Sequence: YFWHALKNALAEHEKR
P3_MAL Rank (after) [12]: 674
P3_MAL Rank (before) [13]: 1334

Sequence: RFMMKFRTELDRGNGG
P8_MAL Rank (after) [5]: 489
P8_MAL Rank (before) [6]: 2304

Sequence: AFLYTFLINLTHPTIH
Rank (after) [7]: 161
Rank (before) [8]: 852

Sequence: HFYWILLKSILGETRL
P8_MAL Rank (after) [12]: 618
P8_MAL Rank (before) [13]: 2426

Sequence: REFIKKIILWMNPKIV
Rank (after) [7]: 109
Rank (before) [8]: 2531

Sequence: VLHKFIGYLRDALQHR
Rank (after) [1]: 184
Rank (before) [2]: 1689

Sequence: AFFWEQLRTVLGKPR
Rank (after) [7]: 130
Rank (before) [8]: 835

Sequence: NYASSSWALDELWNIF
P8_MAL Rank (after) [5]: 502
P8_MAL Rank (before) [6]: 2655

Sequence: LKVESWRQALKQRAL
P3_MAL Rank (after) [5]: 483
P3_MAL Rank (before) [6]: 2283

Sequence: LFYGRMVSLILRDTNV
P8_MAL Rank (after) [12]: 639
P8_MAL Rank (before) [13]: 1100

Sequence: PNLRTTVQNYLMRTKT
P3_MAL Rank (after) [9]: 216
P3_MAL Rank (before) [10]: 2690

Sequence: MSHLYQGLNNRGIFIF
P3_MAL Rank (after) [5]: 527
P3_MAL Rank (before) [6]: 2944

Sequence: PNLRTKVLDYLLRTKT
Rank (after) [1]: 406
Rank (before) [2]: 2702

Continued, values first:

P8_MAL Rank (after) [5]: 505
P8_MAL Rank (before) [6]: 1908
Sequence: AFLDPFLITLIQASNF

Rank (after) [1]: 407
Rank (before) [2]: 2606
Sequence: RNLAGLVYDCLTKTGA

P8_MAL Rank (after) [5]: 560
P8_MAL Rank (before) [6]: 1088
Sequence: FLNFRGLDVRNYFLGH

Population [14]: 0.0034%
Sequence: ASLYTFLINLTHPTNF

P3_MAL Rank (after) [12]: 611
P3_MAL Rank (before) [13]: 1323
Sequence: CRFRQGLWRLLELSKK

P8_MAL Rank (after) [12]: 624
P8_MAL Rank (before) [13]: 1103
Sequence: LFYERLVSLILRHTRV

Rank (after) [7]: 179
Rank (before) [8]: 1232
Sequence: WFYERLVSHMLRDTKV

P3_MAL Rank (after) [3]: 705
P3_MAL Rank (before) [4]: 2898
Sequence: HQTFWDRLCAKLKAPI

Population [14]: 0.00371%
Sequence: RNFVAYLFQALANIGI

P3_MAL Rank (after) [9]: 260
P3_MAL Rank (before) [10]: 2056
Sequence: ESILNQLRRSSQSFAT

P8_MAL Rank (after) [5]: 557
P8_MAL Rank (before) [6]: 2064
Sequence: LFFWARLKNVLGSAGS

P3_MAL Rank (after) [9]: 229
P3_MAL Rank (before) [10]: 1362
Sequence: YAFTGHVHRYMVQRGV

P3_MAL Rank (after) [3]: 701
P3_MAL Rank (before) [4]: 2516
Sequence: RLLKWKEALHQFQTWL

Rank (after) [7]: 157
Rank (before) [8]: 877
Sequence: DSLFWDRLLYSLHVTE

P3_MAL Rank (after) [12]: 621
P3_MAL Rank (before) [13]: 3593
Sequence: KELLHKWKLALTQTPN

P3_MAL Rank (after) [12]: 589
P3_MAL Rank (before) [13]: 1776
Sequence: GSIKWRDQHTVHPQSS

Population [14]: 0.00309%
Sequence: YFLHFLLFSRPETVYI

Rank (after) [7]: 464
Rank (before) [8]: 1504
Sequence: YFLHFLLFSRLDTVYI

P3_MAL Rank (after) [9]: 257
P3_MAL Rank (before) [10]: 1473
Sequence: YAFTSHLHRSLVQRGV

P3_MAL Rank (after) [9]: 258
P3_MAL Rank (before) [10]: 3481
Sequence: NNLFNALVSKNIRTFM
